Data set [1] concerns the target T1, BACE1 (Homo sapiens, UniProt P56817).
T1 construct: recombinant BACE1 protein in a final concentration of 1 mg/ml
Briefly: Biochemical FRET based assay. The conditions noted are these: recombinant BACE1 protein, APP derived 13 amino acids peptide substrate ('Swedish' mutation), 120 minutes at room temperature, pH 5.0; read-out: Biochemical FRET based assay pIC50 (converted). From the text: This assay is a Fluorescence Resonance Energy Transfer Assay (FRET) based assay. The substrate for this assay is an APP derived 13 amino acids peptide that contains the ‘Swedish’ Lys-Met/Asn-Leu mutation of the amyloid precursor protein (APP) beta-secretase cleavage site. This substrate also contains two fluorophores: (7-methoxycoumarin-4-yl) acetic acid (Mca) is a fluorescent donor with excitation wavelength at 320 nm and emission at 405 nm and 2,4-Dinitrophenyl (Dnp) is a proprietary quencher acceptor. […] Upon cleavage by BACE1, the fluorophore Mca is separated from the quenching group Dnp, restoring the full fluorescence yield of the donor. The increase in fluorescence is linearly related to the rate of proteolysis.
Briefly in a 384-well format recombinant BACE1 protein in a final concentration of 1 mg/ml is incubated for 120 minutes at room temperature with […] in incubation buffer (40 mM Citrate buffer pH 5.0, 0.04% PEG, 4% DMSO) in the absence or presence of compound. Next the amount of proteolysis is directly measured by fluorescence measurement at T=0 and T=120 (excitation at 320 nm and emission at 405 nm). Results are expressed in RFU (Relative Fluorescence Units), as difference between T120 and TO.
(§1) A best-fit curve is fitted by a minimum sum of squares method to the plot of % Controlmin versus compound concentration. From this an IC50 value (inhibitory concentration causing 50% inhibition of activity) can be obtained.

Data set [2] deals with Abeta total produced and secreted into the medium of human neuroblastoma SKNBE2 cells. The data set is described as follows: Cellular αLisa assay in SKNBE2 cells, Abeta total. Format: cell-based. The settings on record: SKNBE2 cells expressing wild type hAPP695, incubated for 18 hours, read-out: Cellular αLisa assay in SKNBE2 cells Abetatotal pIC50 (converted). On the procedure: (§2) In two αLisa assays the levels of Abeta total and Abeta 1-42 produced and secreted into the medium of human neuroblastoma SKNBE2 cells are quantified. The assay is based on the human neuroblastoma SKNBE2 expressing the wild type Amyloid Precursor Protein (hAPP695). The compounds are diluted and added to these cells, incubated for 18 hours and then measurements of Abeta 1-42 and Abeta total are taken. Abeta total and Abeta 1-42 are measured by sandwich αLisa. αLisa is a sandwich assay using biotinylated antibody AbN/25 attached to streptavidin coated beads and antibody Ab4G8 or cAb42/26 conjugated acceptor beads for the detection of Abeta total and Abeta 1-42 respectively. In the presence of Abeta total or Abeta 1-42, the beads come into close proximity. The excitation of the donor beads provokes the release of singlet oxygen molecules that trigger a cascade of energy transfer in the acceptor beads, resulting in light emission. Light emission is measured after 1 hour incubation (excitation at […] and emission at 615 nm).
as §1

Data set [3] deals with Abeta 1-42 produced and secreted into the medium of human neuroblastoma SKNBE2 cells. The data set is described as follows: Cellular αLisa assay in SKNBE2 cells, Abeta 1-42. Format: cell-based. The settings on record: SKNBE2 cells expressing wild type hAPP695, incubated for 18 hours, read-out: Cellular αLisa assay in SKNBE2 cells Abeta 42 pIC50 (converted). How it is done:
as §2, §1

By melting point is commonly meant the temperature, or range, at which the solid turns liquid.

T1 sequence (P56817 46-501): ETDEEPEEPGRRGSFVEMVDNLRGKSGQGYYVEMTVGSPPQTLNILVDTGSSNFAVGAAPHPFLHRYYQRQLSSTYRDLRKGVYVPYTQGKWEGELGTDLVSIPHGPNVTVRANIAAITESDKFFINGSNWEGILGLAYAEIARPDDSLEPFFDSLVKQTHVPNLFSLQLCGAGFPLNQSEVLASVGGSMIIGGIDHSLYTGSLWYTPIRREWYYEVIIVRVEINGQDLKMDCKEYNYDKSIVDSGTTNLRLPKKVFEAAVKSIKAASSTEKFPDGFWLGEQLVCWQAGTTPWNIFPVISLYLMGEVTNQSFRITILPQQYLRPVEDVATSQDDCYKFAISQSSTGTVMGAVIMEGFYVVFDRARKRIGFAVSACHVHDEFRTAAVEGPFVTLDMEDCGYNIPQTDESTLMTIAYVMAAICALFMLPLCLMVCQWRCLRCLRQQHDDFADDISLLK

For the compound `COc1cccnc1Nc1ccc(F)c([C@@]2(C)N=C(N)CO[C@H]2C(F)(F)F)c1` [Compound 6, (5R,6R)-5-{2-fluoro-5-[(3-methoxypyridin-2-yl)amino]phenyl}-5-methyl-6-(trifluoromethyl)-5,6-dihydro-2H-1,4-oxazin-3-amine], the IC50 in data set [1] was 138 nM; in data set [2] it was 20.9 nM; in data set [3], 21.4 nM.
For the compound `COc1cccnc1Nc1ccc(F)c([C@@]2(C)N=C(N)CO[C@@H]2F)c1` [Compound 2, (5R,6R)-6-fluoro-5-{2-fluoro-5-[(3-methoxypyridin-2-yl)amino]phenyl}-5-methyl-5,6-dihydro-2H-1,4-oxazin-3-amine], the IC50 is 162 nM in data set [1], 19.5 nM in data set [2] and 24 nM in data set [3].
As for `CC1(c2cc(Nc3ncccc3C#N)ccc2F)N=C(N)COC1F` (stereo not shown) [Compound 9], the IC50 is 224 nM in data set [1], 87.1 nM in data set [2] and 129 nM in data set [3].
As to `C[C@]1(c2cc(Nc3ncccn3)ccc2F)N=C(N)CO[C@@H]1F` [Compound 5, (5R,6R)-6-fluoro-5-[2-fluoro-5-(pyrimidin-2-ylamino)phenyl]-5-methyl-5,6-dihydro-2H-1,4-oxazin-3-amine], the IC50 was 1950 nM in data set [1], 1100 nM in data set [2] and 1260 nM in data set [3].
The corresponding values for `C[C@]1(c2cc(Nc3ncccn3)ccc2F)N=C(N)CO[C@H]1C(F)(F)F` [Compound 7, (5R,6R)-5-[2-fluoro-5-(pyrimidin-2-ylamino)phenyl]-5-methyl-6-(trifluoromethyl)-5,6-dihydro-2H-1,4-oxazin-3-amine] are 3720 nM, 832 nM and 759 nM.
In the case of `COc1cccnc1Nc1ccc(F)c([C@@]2(C)N=C(N)COC2C(F)F)c1` (single isomer, unassigned) [Compound 4, (5R,6R*)-6-(Difluoromethyl)-5-{2-fluoro-5-[(3-methoxypyridin-2-yl)amino]phenyl}-5-methyl-5,6-dihydro-2H-1,4-oxazin-3-amine], the melting point stood at 136.93 °C. Besides, the IC50 in data set [1] is 58.9 nM. For the same compound, in data set [2], the IC50 was 10.5 nM. For the same compound, the IC50 in data set [3] was 9.12 nM.
In the case of `COc1cccnc1Nc1cccc([C@@]2(C3CC3)N=C(N)CO[C@@]2(F)C(F)(F)F)c1` [Compound 1, (5R,6S)-5-cyclopropyl-6-fluoro-5-{3-[(3-methoxypyridin-2-yl)amino]phenyl}-6-(trifluoromethyl)-5,6-dihydro-2H-1,4-oxazin-3-amine], the IC50 in data set [1] is 26.3 nM; in data set [2] it was 53.7 nM; in data set [3], 60.3 nM.
`COc1cccnc1Nc1ccc(F)c([C@@]2(C)N=C(N)COC2=C(F)F)c1` [Compound 3, (5R)-6-(difluoromethylidene)-5-{2-fluoro-5-[(3-methoxyPyridin-2-yl)amino]phenyl}-5-methyl-5,6-dihydro-2H-1,4-oxazin-3-amine]: the IC50 in data set [1] is 759 nM; in data set [2] it was 89.1 nM; in data set [3], 105 nM.
`COc1nccnc1Nc1ccc(F)c([C@@]2(C)N=C(N)CO[C@@H]2F)c1` [Compound 8, (5R,6R)-6-fluoro-5-{2-fluoro-5-[(3-methoxypyrazin-2-yl)amino]phenyl}-5-methyl-5,6-dihydro-2H-1,4-oxazin-3-amine]: the IC50 in data set [1] is 309 nM; in data set [2], 138 nM; in data set [3], 129 nM.

Source of the values: patent US20140364428A1, “5-(3-AMINOPHENYL)-5-ALKYL-5,6-DIHYDRO-2H-[1,4]OXAZIN-3-AMINE DERIVATIVES” (Janssen Pharmaceutica NV, priority 2011, published 2014).
